The text below walks through data of patent US8354537B2, “R,R1-atracurium salts” (CHEMAGIS Ltd., priority 2007, dated 2013).

The series in a line: Stability of the R,R′-atracurium salts in a closed vial at room temperature, monitored by HPLC. The class given is physicochemical. The conditions noted are these: solid salt; for % content of the 1R-cis,1′R-cis isomer in the sample, After 19 days / % content of the 1R-cis,1′R-cis isomer in the sample, After 34 days / % content of the 1R-cis,1′R-cis isomer in the sample, After 47 days: HPLC; for % content of the 1R-cis,1′R-cis isomer in the sample, Reference sample (t0): t0, HPLC. The source says:
1 g of the R,R′-atracurium salt was placed in a closed vial, which was left aside at room temperature. From time to time the vial was opened and a sample was withdrawn and monitored by HPLC. The results are summarized in Table 3 and expressed as % content of the 1R-cis,1′R-cis isomer in the sample as function of the elapsed time, as measured by HPLC.

R,R′-atracurium perchlorate: the “% content of the 1R-cis,1′R-cis isomer in the sample, After 19 days” value (from here on “% content … After 19 days”) is given as 92.1%; the “% content of the 1R-cis,1′R-cis isomer in the sample, After 34 days” value (from here on “% content … After 34 days”) is 92.7%; the “% content of the 1R-cis,1′R-cis isomer in the sample, After 47 days” value (from here on “% content … After 47 days”) worked out at 92.3%; the “% content of the 1R-cis,1′R-cis isomer in the sample, Reference sample (t0)” value (from here on “% content of the 1R-cis,1′R-cis isomer … (t0)”) was found to be 98%.

As for `COc1ccc(C[C@@H]2c3cc(OC)c(OC)cc3CC[N+]2(C)CCC(=O)OCCCCCOC(=O)CC[N+]2(C)CCc3cc(OC)c(OC)cc3[C@H]2Cc2ccc(OC)c(OC)c2)cc1OC.O=S(=O)([O-])c1ccccc1.O=S(=O)([O-])c1ccccc1` (stereo partly drawn) [besylate, R,R′-atracurium besylate, reference compound], the “% content … After 19 days” value is given as 80.5%; the “% content … After 34 days” value came out at 15.1%; the “% content … After 47 days” value turned out to be 7.9%; the “% content of the 1R-cis,1′R-cis isomer … (t0)” value is reported as 97.2%.

Consider R,R′-atracurium tetrafluoroborate, for which the “% content … After 19 days” value is 88.8%; the “% content … After 34 days” value is on record as 85.3%; the “% content … After 47 days” value worked out at 82.6%; the “% content of the 1R-cis,1′R-cis isomer … (t0)” value came to 98.2%.
